Measured values as given in ChEMBL document CHEMBL3352393, “Gallic acid, one of the components in many plant tissues, is a potential inhibitor for insulin amyloid fibril formation” (Eur J Med Chem, 2014).
Active and inactive are the calls of the source. No cut-off for these calls is given here.

Tests used:
Homo sapiens [1] = species: Homo sapiens; test: Inhibition of insulin fibril formation (unknown origin) assessed as turbidity at 1:5 insulin to compound ratio at pH2 up to 12 hrs by UV/vis spectrometry; conditions: concentration not given here
Homo sapiens [2] = species: Homo sapiens; test: Inhibition of insulin fibril formation (unknown origin) assessed as turbidity at 1:10 insulin to compound ratio at pH2 up to 12 hrs by UV/vis spectrometry
Homo sapiens [3] = species: Homo sapiens; test: Inhibition of insulin fibril formation (unknown origin) assessed as turbidity at 1:50 insulin to compound ratio at pH2 up to 12 hrs by UV/vis spectrometry; conditions: concentration not given here
Homo sapiens [4] = species: Homo sapiens; test: Inhibition of insulin fibril formation (unknown origin) assessed as turbidity at pH2 up to 12 hrs by UV/vis spectrometry
Homo sapiens [5] = species: Homo sapiens; test: Inhibition of insulin fibril formation (unknown origin) assessed as turbidity at 1:20 insulin to compound ratio at pH2 up to 12 hrs by atomic force microscopy
Homo sapiens [6] = species: Homo sapiens; test: Inhibition of insulin fibril formation (unknown origin) assessed as decrease in ThT fluorescence at 1:5 insulin to compound ratio at pH2 up to 12 hrs by ThT binding assay
Homo sapiens [7] = species: Homo sapiens; test: Inhibition of insulin fibril formation (unknown origin) assessed as decrease in ThT fluorescence at 1:50 insulin to compound ratio at pH2 up to 12 hrs by ThT binding assay
Homo sapiens [8] = species: Homo sapiens; test: Inhibition of insulin fibril formation (unknown origin) assessed as secondary structural changes at 1:5 insulin to compound ratio at pH2 up to 12 hrs by Far-UV CD spectra
Homo sapiens [9] = species: Homo sapiens; test: Inhibition of insulin fibril formation (unknown origin) assessed as secondary structural changes at 1:5 insulin to compound ratio at pH2 up to 12 hrs by FT-IR technique

With O=C(O)c1cc(O)c(O)c(O)c1 the inhibition (Homo sapiens [1]) was > 50%, the inhibition (Homo sapiens [2]) was “Active” and the inhibition (Homo sapiens [3]) was 90%. For the same compound, the inhibition (Homo sapiens [4]) was “Dose-dependent effect”, the inhibition (Homo sapiens [5]) was “Active” and the inhibition (Homo sapiens [6]) was “Active”. For the same compound, the inhibition (Homo sapiens [7]) was “Active”, the inhibition (Homo sapiens [8]) was “Active” and the inhibition (Homo sapiens [9]) was “Active”.
